According to patent US20210213041A1, “REPEAT RNA AS BIOMARKERS OF TUMOR IMMUNE RESPONSE” (The General Hospital Corporation, priority 2018, published 2021):

Test system: melanoma
Experiment: Immunotherapy response of melanoma patients by standard clinical imaging criteria (CT scan change), tumors classed by HSATII RNA-ISH
Format: in vivo, human
Experimental: All combined RNA-ISH and IHC assays are performed as follows: Monoclonal antibodies for immune cells (T-cell subsets CD3, CD4, CD8, FOXP3; Macrophages CD68, CD163; B-cells CD20; NK cells CD16, CD56) and RNA ISH probes for repeat RNAs (HSATII, HERV-K, HERV-H, LINE1) were sequentially applied on a single histologic slide, and contrasting chromogens were used to visualize the antibody: brown (diaminobenzidine [DAB]) for immune marker and RNA: red (fast red) for repeat RNA. Paraffin-embedded sections were mounted on coated slides and were placed in an oven for 60 minutes at 60° C. The sequential double-staining protocol was performed using the Leica Bond Rx automated immunostainer. […]
As shown herein, HSATII low melanomas respond to immunotherapy including anti-PD1/PDL1 and anti-CTLA4 therapies (FIG. 5). Briefly, a cohort of 20 melanoma patients who received either anti-PD1/PDL1 or anti-CTLA4 therapy that had formalin fixed paraffin embedded (FFPE) tissue were evaluated with HSATII RNA-ISH combined with CD3 T cell IHC assay. Tumors were evaluated for HSATII RNA levels (HIGH vs LOW) and CD3 T cell infiltrates quantitated by manual counting of cells in a 400×200 micron area by a pathologist. […] Tumors were evaluated for HSATII RNA levels (HIGH vs LOW) and CD163 macrophage infiltrates quantitated by manual counting of cells in a 400×200 micron area by a pathologist.

| Substance | immunotherapy response as determined by standard clinical imaging criteria (CT scan change) (HSATII LOW tumors (high CD3 T-cells)) | immunotherapy response as determined by standard clinical imaging criteria (CT scan change) (HSATII HIGH tumors (low CD3 T-cells)) |
| --- | --- | --- |
| ipilimumab | responder |  |
| nivolumab |  | non-responder |
